Laboratory results: patent US20100267561A1, “HERBICIDAL PYRIDAZINONE DERIVATIVES” (priority 2007, published 2010)

Key:
Assay type in all cases: in vivo
[1] = test system: ducksalad (Heteranthera limosa); test: Test B flooded paddy test plant response; details: Heteranthera limosa, read-out: Plant response rating, Ducksalad
In short: (§1)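 Compounds were added directly to paddy water over 2-leaf-stage plants in pots flooded 3 cm above soil, water depth maintained. Visual injury scored against controls after 13 to 15 days in greenhouse, 0 (none) to 100 (complete control); dash indicates no result.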

[2] = test system: umbrella sedge (Cyperus difformis); test: Test B flooded paddy test plant response; details: Cyperus difformis, read-out: Plant response rating, Sedge, Umbrella
In short: as §1

[3] = test system: Italian ryegrass (Lolium multiflorum); test: Test C pre-/postemergence plant response
Text: (§2) Seeds of plant species selected from annual bluegrass (Poa annua), blackgrass (Alopecurus myosuroides), canola (Brassica rapa), downy bromegrass (Bromus tectorum), green foxtail (Setaria viridis), Italian ryegrass (Lolium multiflorum), canarygrass (Phalaris minor), pigweed (Amaranthus retroflexus), spring barley (Hordeum vulgare), spring wheat (Triticum aestivum), wild mustard (Sinapis arvensis), wild oat (Avena fatua), windgrass (Apera spica-venti), winter barley (Hordeum vulgare), and winter wheat (Triticum aestivum) were planted and treated preemergence with test chemicals formulated in a non-phytotoxic solvent mixture which included a surfactant. At the same time, plants selected from these crop and weed species were treated with postemergence applications of some of the test chemicals formulated in the same manner. Plants ranged in height from 2 to 18 cm (1- to 4-leaf stage) for postemergence treatments.
(§3) Treated plants and controls were maintained in a controlled growth environment for 15 to 25 days after which time all species were compared to controls and visually evaluated. Plant response ratings, summarized in Table C, are based on a scale of 0 to 100 where 0 is no effect and 100 is complete control. A dash (-) response means no test result.

[4] = test system: annual bluegrass (Poa annua); test: Test C pre-/postemergence plant response
Text: as §2, §3

[5] = test system: blackgrass (Alopecurus myosuroides); test: Test C pre-/postemergence plant response
Text: as §2, §3

[6] = test system: canarygrass (Phalaris minor); test: Test C pre-/postemergence plant response
Text: as §2, §3

[7] = test system: downy bromegrass (Bromus tectorum); test: Test C pre-/postemergence plant response
Text: as §2, §3

[8] = test system: green foxtail (Setaria viridis); test: Test C pre-/postemergence plant response
Text: as §2, §3

[9] = test system: pigweed (Amaranthus retroflexus); test: Test C pre-/postemergence plant response
Text: as §2, §3

[10] = test system: spring barley (Hordeum vulgare); test: Test C pre-/postemergence plant response
Text: as §2, §3

[11] = test system: spring wheat (Triticum aestivum); test: Test C pre-/postemergence plant response
Text: as §2, §3

[12] = test system: wild mustard (Sinapis arvensis); test: Test C pre-/postemergence plant response
Text: as §2, §3

wild oat (Avena fatua) = test: Test C pre-/postemergence plant response
Text: as §2, §3

[13] = test system: windgrass (Apera spica-venti); test: Test C pre-/postemergence plant response
Text: as §2, §3

[14] = test system: winter barley (Hordeum vulgare); test: Test C pre-/postemergence plant response
Text: as §2, §3

[15] = test system: winter wheat (Triticum aestivum); test: Test C pre-/postemergence plant response
Text: as §2, §3

[16] = Flood (flooded paddy test), 62 g ai/ha, scale 0 to 100, 0 no effect, 100 complete control
[17] = Flood (flooded paddy test), 125 g ai/ha, scale 0 to 100, 0 no effect, 100 complete control
[18] = Flood (flooded paddy test), 250 g ai/ha, scale 0 to 100, 0 no effect, 100 complete control
[19] = Flood, 31 g ai/ha, scale 0 to 100
[20] = Postemergence, 8 g ai/ha, scale 0 to 100, 0 no effect, 100 complete control
[21] = Postemergence, 16 g ai/ha, scale 0 to 100, 0 no effect, 100 complete control
[22] = Postemergence, 31 g ai/ha, scale 0 to 100, 0 no effect, 100 complete control
[23] = Postemergence, 62 g ai/ha, scale 0 to 100, 0 no effect, 100 complete control
[24] = Preemergence, 8 g ai/ha, scale 0 to 100 (0 no effect, 100 complete control)
[25] = Preemergence, 16 g ai/ha, scale 0 to 100 (0 no effect, 100 complete control)
[26] = Preemergence, 31 g ai/ha, scale 0 to 100 (0 no effect, 100 complete control)
[27] = Preemergence, 62 g ai/ha, scale 0 to 100, 0 no effect, 100 complete control

CCc1cc(-c2ccc(C(F)(F)F)cc2)nn1-c1c(O)cnn(C)c1=O [Compound 11, 4-[5-ethyl-3-[4-(trifluoromethyl)phenyl]-1H-pyrazol-1-yl]-5-hydroxy-2-methyl-3(2H)-pyridazinone]
40%: pest or weed control at 250 g/ha [1, 18] | pest or weed control at 125 g/ha [2, 17] | pest or weed control at 250 g/ha [2, 18]
30: Plant response rating, Bluegrass [4, 27] | Plant response rating, Barley, Spring [10, 25]
40: Plant response rating, Mustard, Wild [12, 23] | Plant response rating, Barley, Winter [14, 25] | Plant response rating, Wheat, Winter [15, 25]
50: Plant response rating, Bromegrass, Downy [7, 20] | Plant response rating, Wheat, Spring [11, 24]
90: Plant response rating, Blackgrass [5, 25] | Plant response rating, Blackgrass [5, 26] | Plant response rating, Wheat, Spring [11, 21] | Plant response rating, Wheat, Winter [15, 20]
80: Plant response rating, Bromegrass, Downy [7, 21] | Plant response rating, Barley, Spring [10, 20]
35: Plant response rating, Bromegrass, Downy [7, 24]
0%: pest or weed control at 62 g/ha [1, 16] | pest or weed control at 125 g/ha [1, 17] | pest or weed control at 31 g/ha [1, 19]
10: Plant response rating, Pigweed [9, 21] | Plant response rating, Pigweed [9, 22]
70: Plant response rating, Bromegrass, Downy [7, 26] | Plant response rating, Barley, Spring [10, 26] | Plant response rating, Barley, Winter [14, 21]
0: Plant response rating, Bluegrass [4, 20] | Plant response rating, Bluegrass [4, 24] | Plant response rating, Pigweed [9, 20] | Plant response rating, Pigweed [9, 24] | Plant response rating, Pigweed [9, 25] | Plant response rating, Pigweed [9, 26] | Plant response rating, Mustard, Wild [12, 20] | Plant response rating, Mustard, Wild [12, 24] | Plant response rating, Mustard, Wild [12, 25] | Plant response rating, Mustard, Wild [12, 26] | Plant response rating, Mustard, Wild [12, 27]
95: Plant response rating, Foxtail, Green [8, 20] | Plant response rating, Barley, Spring [10, 21] | Plant response rating, Barley, Spring [10, 22] | Plant response rating, Windgrass [13, 20] | Plant response rating, Windgrass [13, 21] | Plant response rating, Windgrass [13, 22] | Plant response rating, Windgrass [13, 23] | Plant response rating, Barley, Winter [14, 22] | Plant response rating, Barley, Winter [14, 27]
25: Plant response rating, Mustard, Wild [12, 21] | Plant response rating, Mustard, Wild [12, 22]
20: Plant response rating, Bluegrass [4, 23] | Plant response rating, Bluegrass [4, 25] | Plant response rating, Pigweed [9, 23] | Plant response rating, Barley, Spring [10, 24] | Plant response rating, Barley, Winter [14, 24] | Plant response rating, Wheat, Winter [15, 24]
65: Plant response rating, Canarygrass [6, 20] | Plant response rating, Bromegrass, Downy [7, 25] | Plant response rating, Wheat, Spring [11, 20]
85: Plant response rating, Ryegrass, Italian [3, 24] | Plant response rating, Blackgrass [5, 24]
75: Plant response rating, Canarygrass [6, 25] | Plant response rating, Wheat, Spring [11, 26] | Plant response rating, Barley, Winter [14, 26]
60: Plant response rating, Wheat, Spring [11, 25] | Plant response rating, Barley, Winter [14, 20]
98: Plant response rating, Ryegrass, Italian [3, 20] | Plant response rating, Ryegrass, Italian [3, 21] | Plant response rating, Ryegrass, Italian [3, 25] | Plant response rating, Canarygrass [6, 26] | Plant response rating, Bromegrass, Downy [7, 22] | Plant response rating, Bromegrass, Downy [7, 23] | Plant response rating, Foxtail, Green [8, 21] | Plant response rating, Barley, Spring [10, 23] | Plant response rating, Wheat, Spring [11, 22] | Plant response rating, Wheat, Spring [11, 23] | Plant response rating, Oat, Wild (wild oat (Avena fatua); [24]) | Plant response rating, Oat, Wild (wild oat (Avena fatua); [25]) | Plant response rating, Oat, Wild (wild oat (Avena fatua); [26])
30%: pest or weed control at 62 g/ha [2, 16] | pest or weed control at 31 g/ha [2, 19]
15: Plant response rating, Bluegrass [4, 21] | Plant response rating, Bluegrass [4, 22] | Plant response rating, Canarygrass [6, 24] | Plant response rating, Pigweed [9, 27]
100: Plant response rating, Ryegrass, Italian [3, 22] | Plant response rating, Ryegrass, Italian [3, 23] | Plant response rating, Ryegrass, Italian [3, 26] | Plant response rating, Ryegrass, Italian [3, 27] | Plant response rating, Blackgrass [5, 20] | Plant response rating, Blackgrass [5, 21] | Plant response rating, Blackgrass [5, 22] | Plant response rating, Blackgrass [5, 23] | Plant response rating, Blackgrass [5, 27] | Plant response rating, Canarygrass [6, 21] | Plant response rating, Canarygrass [6, 22] | Plant response rating, Canarygrass [6, 23] | Plant response rating, Canarygrass [6, 27] | Plant response rating, Bromegrass, Downy [7, 27] | Plant response rating, Foxtail, Green [8, 22] | Plant response rating, Foxtail, Green [8, 23] | Plant response rating, Foxtail, Green [8, 24] | Plant response rating, Foxtail, Green [8, 25] | Plant response rating, Foxtail, Green [8, 26] | Plant response rating, Foxtail, Green [8, 27] | Plant response rating, Barley, Spring [10, 27] | Plant response rating, Wheat, Spring [11, 27] | Plant response rating, Oat, Wild (wild oat (Avena fatua); [20]) | Plant response rating, Oat, Wild (wild oat (Avena fatua); [21]) | Plant response rating, Oat, Wild (wild oat (Avena fatua); [22]) | Plant response rating, Oat, Wild (wild oat (Avena fatua); [23]) | Plant response rating, Oat, Wild (wild oat (Avena fatua); [27]) | Plant response rating, Windgrass [13, 24] | Plant response rating, Windgrass [13, 25] | Plant response rating, Windgrass [13, 26] | Plant response rating, Windgrass [13, 27] | Plant response rating, Barley, Winter [14, 23] | Plant response rating, Wheat, Winter [15, 21] | Plant response rating, Wheat, Winter [15, 22] | Plant response rating, Wheat, Winter [15, 23] | Plant response rating, Wheat, Winter [15, 26] | Plant response rating, Wheat, Winter [15, 27]
